Assay results reported in patent publication US4876281A, “Antifungal agents” (Wakunaga Seiyaku Kabushiki Kaisha, priority 1986, dated 1989).
Converted amounts (≈) assume the structure as drawn. Like-named read-outs stand apart in the source and are kept apart here.

Experiments:
platelet aggregation = conditions: literature; cited from earlier work
Aspergillus niger = assay: 95% growth inhibitory concentration, Aspergillus niger; type: cell-based, Aspergillus niger IFO 9455; conditions: IFO9455, 72 h, read-out: 95% Growth inhibitory concentration, Aspergillus niger
Protocol: (§1) Strains for use in test: Candida albicans, IFO 1594 Aspergillus niger, IFO 9455
(§2) Culture medium: Liquid Sabouraud's medium (maltose 40 g, proteose peptone 10 g, distilled water 1000 ml)
(§3) Positive control: amphotericin B (Sigma) 5-fluorocytosine (Wako Junyaku, Japan)
(§4) A sample was diluted with culture medium to vary concentrations and poured into test tubes each to contain 5 ml, and a platinum loop of spores was inoculated in each tube. After shaken cultivation at 37° C. for 3 days, formalin (0.5 ml) was added and well mixed. The mixture was centrifuged at 3500 rpm for 10 minutes to collect fungi, which were in turn dewatered on a filter paper, dried at 100° C. for one hour and weighed. The growth rate was determined by the following equation [formula] 95% growth-inhibitory concentration (up to 5% growth rate): a mean value of sample concentrations producing 95% growth inhibitory effects.

[1] = one week toxicity test, intraperitoneal; type: in vivo; conditions: 5 male ICR mice of 5 weeks age, dose not given
Candida albicans = assay: 95% growth inhibitory concentration, Candida albicans; type: cell-based, Candida albicans IFO 1594; conditions: read-out: 95% Growth inhibitory concentration, Candida albicans
Protocol: as §1, §2, §3
A culture resulting from shaken cultivation at 37° C. overnight was diluted 100-fold with the culture medium and used as seed culture.
A sample was diluted with the culture medium to vary concentrations and poured into test tubes each to contain 5 ml, and the seed culture (100 μl) was inoculated. After cultivation with shaking at 37° C. for 18 hours, formalin (0.5 ml) was added, thoroughly mixed, and diluted 10-fold with the culture medium. The resultant liquor was measured for absorbancy at 660 nm. The growth rate (%) was determined according to the equation [formula]
as §4

fungi = conditions: Japanese Patent Publication No. 263121/1987; cited from earlier work
[2] = Aspergillus niger IFO 9455, liquid Sabouraud's medium, 37° C., 3 days, dry weight, up to 5% growth rate, mean value
[3] = IFO1594, Candida albicans IFO 1594, liquid Sabouraud's medium, 37° C., 18 hours, up to 5% growth rate, mean value

Row | SMILES | IC95 (Aspergillus niger; [2]) [µg/mL] | IC95 (Candida albicans; [3]) [µg/mL] | also measured
1 | C=CCSSSC [methylallyltrisulfide] |  |  | platelet aggregation inhibitory activity (platelet aggregation): platelet aggregation inhibitory activity
2 | C=CCSSC=CCS(=O)(=O)CC=C [Compound 1] | 28.5 (≈ 114 µM) | 5.4 (≈ 21.6 µM) | mortality after one week [1]: no mortality was observed
3 | Nc1nc(=O)[nH]cc1F [5-fluorocytosine, reference compound] | 80 (≈ 620 µM) | 20 (≈ 155 µM) | 
4 | C[C@@H]1[C@H](O)[C@@H](C)/C=C/C=C/C=C/C=C/C=C/C=C/C=C/[C@H](O[C@@H]2O[C@H](C)[C@@H](O)[C@H](N)[C@@H]2O)C[C@@H]2O[C@](O)(C[C@@H](O)C[C@@H](O)[C@H](O)CC[C@@H](O)C[C@@H](O)CC(=O)O[C@H]1C)C[C@H](O)[C@H]2C(=O)O [Amphotericin B, reference compound] |  |  | IC95 (Aspergillus niger; Aspergillus niger): > 0.8 µg/mL; IC95 (Candida albicans; Candida albicans, IFO1594, 18 h): 0.2 µg/mL (≈ 0.216 µM)
5 | C=CCSSC=CC[S+](C)[O-] (stereo not shown) [Compound 5] | 57.3 (≈ 275 µM) |  | 
6 | C=CC[S+]([O-])CC=CSSC (stereo not shown) [Compound 17] | 49.1 (≈ 236 µM) | 40.7 (≈ 195 µM) | 
7 | CCOC(=O)CCCSSC=CC[S+]([O-])CCCC(=O)OCC (stereo not shown) [Compound 10] | 80.4 (≈ 210 µM) |  | 
8 | C=CCSSC=CC[S+]([O-])CC=C (stereo not shown) [ajoene] |  |  | antifungal activity (fungi): has antifungal activity; platelet aggregation inhibitory activity (platelet aggregation): demonstrated to have platelet aggregation inhibitory activity
9 | C=CC[S+]([O-])SC=CCS(=O)(=O)CC=C (stereo not shown) [Compound 7] | 30.8 (≈ 116 µM) |  | 
10 | C=CCS(=O)(=O)CC=CSSCc1ccccc1 [Compound 16] | 42.2 (≈ 140 µM) |  | 
